According to US20200187499A1, “SUBSTITUTED BENZYL-4-AMINOPICOLINIC ESTERS AND PYRIMIDINO-4-CARBOXYLIC ESTERS, METHODS FOR THE PRODUCTION THEREOF, AND USE THEREOF AS HERBICIDES AND PLANT GROWTH REGULATORS” (Bayer CropScience Aktiengesellschaft, priority 2017, published 2020):

Experiments:
Format in all cases: in vivo
ABUTH [1] = test: Pre-emergence herbicidal action; conditions: Table 2, pre-emergence (PE), 320 g/ha, scored after 3 weeks
Method in brief: (§1)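 Sandy loam, seeds covered with soil. Pre-em soil-surface spray, WP or EC in water, 600 to 800 l/ha, 0.2% wetting agent. Greenhouse, 3 wk. Visual % damage vs untreated (100% = dead).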

ALOMY = test: Pre-emergence herbicidal action; conditions: Table 2, pre-emergence (PE), 320 g/ha, scored after 3 weeks
Method in brief: as §1

AMARE [2] = test: Pre-emergence herbicidal action; conditions: Table 2, pre-emergence (PE), 320 g/ha, scored after 3 weeks
Method in brief: as §1

ECHCG [3] = test: Pre-emergence herbicidal action; conditions: Table 2, pre-emergence (PE), 320 g/ha, scored after 3 weeks
Method in brief: as §1

POLCO [4] = test: Pre-emergence herbicidal action; conditions: Table 2, pre-emergence (PE), 320 g/ha, scored after 3 weeks
Method in brief: as §1

SETVI [5] = test: Pre-emergence herbicidal action; conditions: Table 2, pre-emergence (PE), 320 g/ha, scored after 3 weeks
Method in brief: as §1

VIOTR [6] = test: Pre-emergence herbicidal action; conditions: Table 2, pre-emergence (PE), 320 g/ha, scored after 3 weeks
Method in brief: as §1

ABUTH [7] = test: Post-emergence herbicidal action; conditions: Table 5, post-emergence (PO), 320 g/ha, assessed after about 3 weeks
Method in brief: (§2)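 Greenhouse post-emergence spray, one-leaf stage (2–3 wk after sowing, sandy loam). WP/EC formulation, aqueous, 600–800 l/ha, + 0.2% wetting agent. Visual rating ~3 wk, % vs untreated (100 = dead).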

AMARE [8] = test: Post-emergence herbicidal action; conditions: Table 5, post-emergence (PO), 320 g/ha, assessed after about 3 weeks
Method in brief: as §2

ECHCG [9] = test: Post-emergence herbicidal action; conditions: Table 5, post-emergence (PO), 320 g/ha, assessed after about 3 weeks
Method in brief: as §2

PHBPU = test: Post-emergence herbicidal action; conditions: Table 5, post-emergence (PO), 320 g/ha, assessed after about 3 weeks
Method in brief: as §2

POLCO [10] = test: Post-emergence herbicidal action; conditions: Table 5, post-emergence (PO), 320 g/ha, assessed after about 3 weeks
Method in brief: as §2

SETVI [11] = test: Post-emergence herbicidal action; conditions: Table 5, post-emergence (PO), 320 g/ha, assessed after about 3 weeks
Method in brief: as §2

STEME = test: Post-emergence herbicidal action; conditions: Table 5, post-emergence (PO), 320 g/ha, assessed after about 3 weeks
Method in brief: as §2

VIOTR [12] = test: Post-emergence herbicidal action; conditions: Table 5, post-emergence (PO), 320 g/ha, assessed after about 3 weeks
Method in brief: as §2

SMILES | Herbicidal action against ABUTH (ABUTH [1]) [%] | Herbicidal action against ALOMY (ALOMY) [%] | Herbicidal action against AMARE (AMARE [2]) [%] | Herbicidal action against ECHCG (ECHCG [3]) [%] | Herbicidal action against POLCO (POLCO [4]) [%] | Herbicidal action against SETVI (SETVI [5]) [%] | Herbicidal action against VIOTR (VIOTR [6]) [%] | Herbicidal action against ABUTH (ABUTH [7]) [%] | Herbicidal action against AMARE (AMARE [8]) [%] | Herbicidal action against ECHCG (ECHCG [9]) [%] | Herbicidal action against PHBPU (PHBPU) [%] | Herbicidal action against POLCO (POLCO [10]) [%] | Herbicidal action against SETVI (SETVI [11]) [%] | Herbicidal action against STEME (STEME) [%] | Herbicidal action against VIOTR (VIOTR [12]) [%]
Nc1cc(-c2ccc3ccsc3c2)nc(C(=O)OCc2ccc(F)cc2)c1Cl [Example I-07, 4-fluorobenzyl 4-amino-6-(1-benzothiophen-6-yl)-3-chloropyridine-2-carboxylate] | 80 | 90 | 100 | 100 | 100 | 90 | 50 | 100 | 100 | 90 | 80 | 80 | 100 | 0 | 60
Nc1cc(-c2ccc3sccc3c2)nc(C(=O)OCc2cccc(F)c2)c1Cl [Example I-09] | 70 | 20 | 90 | 100 | 90 | 90 | 60 | 100 | 100 | 100 | 80 | 70 | 90 | 100 | 90
Nc1cc(-c2ccc3occc3c2)nc(C(=O)OCc2ccc(F)cc2)c1Cl [Example I-05] | 50 | 30 | 90 | 90 | 90 | 90 | 50 | 100 | 100 | 100 | 80 | 30 | 100 | 100 | 90
Nc1cc(-c2ccc3sccc3c2)nc(C(=O)OCc2ccc(F)cc2F)c1Cl [Example I-18] | 40 | 30 | 100 | 100 | 10 | 70 | 20 | 100 | 100 | 100 | 80 | 80 | 90 | 80 | 90
Nc1c(F)c(-c2ccc3ccoc3c2)nc(C(=O)OCc2ccc(F)cc2)c1Cl [Example I-04] | 90 | 40 | 100 | 90 | 50 | 70 | 40 | 100 | 100 | 100 | 40 | 80 | 90 | 100 | 50
